Laboratory results reported in the supplement of paper PMC10307832.

Tests used:
Assay in all cases: relative viability (nuclei count vs DMSO), 5 days (fraction); higher = more cells survive
NCI-H1993 = system: NCI-H1993
Summary of the method: (§1)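 Cells from lung cancer lines were seeded into 1536-well plates and, one day later, dosed by pin tool. Treatments were either a single drug or a fixed dose of an anchor drug with five library-drug doses (not always all listed) in √10 steps. After 5 days, nuclei were stained in a one-step fixation (final 0.05% Triton X-100, 1% formaldehyde, 1 ug/ml Hoechst) and counted on 4× images, and relative viability is the treated-to-vehicle nuclei ratio, as the median of duplicate plates.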

NCI-H1734 = system: NCI-H1734
Summary of the method: as §1

HCC-827 = system: HCC-827
Summary of the method: as §1

BEN = system: BEN
Summary of the method: as §1

HCC-366 = system: HCC-366
Summary of the method: as §1

NCI-H2009 = system: NCI-H2009
Summary of the method: as §1

SK-MES-1 = system: SK-MES-1
Summary of the method: as §1

NCI-H2405 = system: NCI-H2405
Summary of the method: as §1

LOU-NH91 = system: LOU-NH91
Summary of the method: as §1

HARA = system: HARA
Summary of the method: as §1

NCI-H2087 = system: NCI-H2087
Summary of the method: as §1

NCI-H1355 = system: NCI-H1355
Summary of the method: as §1

NCI-H2170 = system: NCI-H2170
Summary of the method: as §1

SK-LU-1 = system: SK-LU-1
Summary of the method: as §1

NCI-H661 = system: NCI-H661
Summary of the method: as §1

NCI-H1395 = system: NCI-H1395
Summary of the method: as §1

NCI-H2342 = system: NCI-H2342
Summary of the method: as §1

NCI-H647 = system: NCI-H647
Summary of the method: as §1

NCI-H1792 = system: NCI-H1792
Summary of the method: as §1

EKVX = system: EKVX
Summary of the method: as §1

NCI-H1437 = system: NCI-H1437
Summary of the method: as §1

NCI-H522 = system: NCI-H522
Summary of the method: as §1

For `CC(=O)O[C@@]12CO[C@@H]1C[C@H](O)[C@@]1(C)C(=O)[C@H](O)C3=C(C)[C@@H](OC(=O)[C@H](O)[C@@H](NC(=O)OC(C)(C)C)c4ccccc4)C[C@@](O)([C@@H](OC(=O)c4ccccc4)[C@H]21)C3(C)C` [Docetaxel] + Nc1ncn([C@H]2C[C@H](O)[C@@H](CO)O2)c(=O)n1 [Decitabine] (partner 2 µM), the relative viability (NCI-H1993; first compound 0.0002 µM) was 0.608, the relative viability (NCI-H1993; first compound 0.000632 µM) was 0.683 and the relative viability (NCI-H1993; first compound 0.002 µM) was 0.646. For the same compound, the relative viability (NCI-H1993; first compound 0.006325 µM) was 0.585, the relative viability (NCI-H1993; first compound 0.02 µM) was 0.354 and the relative viability (NCI-H1734; first compound 0.0002 µM) was 0.492. It also gave a relative viability (NCI-H1734; first compound 0.000632 µM) of 0.431, a relative viability (NCI-H1734; first compound 0.002 µM) of 0.359 and a relative viability (NCI-H1734; first compound 0.006325 µM) of 0.307. For the same compound, the relative viability (NCI-H1734; first compound 0.02 µM) was 0.218, the relative viability (HCC-827; first compound 0.0002 µM) was 0.2 and the relative viability (HCC-827; first compound 0.000632 µM) was 0.343. The relative viability (HCC-827; first compound 0.002 µM) was 0.279, the relative viability (HCC-827; first compound 0.006325 µM) was 0.251 and the relative viability (HCC-827; first compound 0.02 µM) was 0.236. For the same compound, the relative viability (BEN; first compound 0.0002 µM) was 0.522, the relative viability (BEN; first compound 0.000632 µM) was 0.621 and the relative viability (BEN; first compound 0.002 µM) was 0.426. It also gave a relative viability (BEN; first compound 0.006325 µM) of 0.417, a relative viability (BEN; first compound 0.02 µM) of 0.325 and a relative viability (HCC-366; first compound 0.0002 µM) of 0.292. For the same compound, the relative viability (HCC-366; first compound 0.000632 µM) was 0.12, the relative viability (HCC-366; first compound 0.002 µM) was 0.107 and the relative viability (HCC-366; first compound 0.006325 µM) was 0.0547. For the same compound, the relative viability (HCC-366; first compound 0.02 µM) was 0.0292, the relative viability (NCI-H2009; first compound 0.0002 µM) was 0.438 and the relative viability (NCI-H2009; first compound 0.000632 µM) was 0.376. The relative viability (NCI-H2009; first compound 0.002 µM) was 0.3, the relative viability (NCI-H2009; first compound 0.006325 µM) was 0.263 and the relative viability (NCI-H2009; first compound 0.02 µM) was 0.181. The relative viability (SK-MES-1; first compound 0.0002 µM) was 0.375, the relative viability (SK-MES-1; first compound 0.000632 µM) was 0.381 and the relative viability (SK-MES-1; first compound 0.002 µM) was 0.347. The relative viability (SK-MES-1; first compound 0.02 µM) was 0.164, the relative viability (NCI-H2405; first compound 0.0002 µM) was 0.724 and the relative viability (NCI-H2405; first compound 0.000632 µM) was 0.75. For the same compound, the relative viability (NCI-H2405; first compound 0.002 µM) was 0.663, the relative viability (NCI-H2405; first compound 0.006325 µM) was 0.498 and the relative viability (NCI-H2405; first compound 0.02 µM) was 0.341. It also gave a relative viability (LOU-NH91; first compound 0.0002 µM) of 0.822, a relative viability (LOU-NH91; first compound 0.000632 µM) of 0.841 and a relative viability (LOU-NH91; first compound 0.002 µM) of 0.621. The relative viability (LOU-NH91; first compound 0.006325 µM) was 0.518, the relative viability (LOU-NH91; first compound 0.02 µM) was 0.379 and the relative viability (HARA; first compound 0.0002 µM) was 0.459. The relative viability (HARA; first compound 0.000632 µM) was 0.314, the relative viability (HARA; first compound 0.002 µM) was 0.249 and the relative viability (HARA; first compound 0.006325 µM) was 0.187. For the same compound, the relative viability (HARA; first compound 0.02 µM) was 0.111, the relative viability (NCI-H2087; first compound 0.0002 µM) was 0.286 and the relative viability (NCI-H2087; first compound 0.000632 µM) was 0.227. It also gave a relative viability (NCI-H2087; first compound 0.002 µM) of 0.172, a relative viability (NCI-H2087; first compound 0.006325 µM) of 0.0964 and a relative viability (NCI-H2087; first compound 0.02 µM) of 0.098. For the same compound, the relative viability (NCI-H1355; first compound 0.0002 µM) was 0.35, the relative viability (NCI-H1355; first compound 0.000632 µM) was 0.365 and the relative viability (NCI-H1355; first compound 0.002 µM) was 0.286. It also gave a relative viability (NCI-H1355; first compound 0.006325 µM) of 0.276, a relative viability (NCI-H1355; first compound 0.02 µM) of 0.179 and a relative viability (NCI-H2170; first compound 0.0002 µM) of 0.472. It also gave a relative viability (NCI-H2170; first compound 0.000632 µM) of 0.437, a relative viability (NCI-H2170; first compound 0.002 µM) of 0.371 and a relative viability (NCI-H2170; first compound 0.006325 µM) of 0.172. The relative viability (NCI-H2170; first compound 0.02 µM) was 0.151, the relative viability (SK-LU-1; first compound 0.0002 µM) was 0.613 and the relative viability (SK-LU-1; first compound 0.000632 µM) was 0.645. For the same compound, the relative viability (SK-LU-1; first compound 0.002 µM) was 0.524, the relative viability (SK-LU-1; first compound 0.006325 µM) was 0.378 and the relative viability (SK-LU-1; first compound 0.02 µM) was 0.269. The relative viability (NCI-H661; first compound 0.0002 µM) was 0.519, the relative viability (NCI-H661; first compound 0.000632 µM) was 0.575 and the relative viability (NCI-H661; first compound 0.002 µM) was 0.606. For the same compound, the relative viability (NCI-H661; first compound 0.006325 µM) was 0.358, the relative viability (NCI-H661; first compound 0.02 µM) was 0.343 and the relative viability (NCI-H1395; first compound 0.0002 µM) was 0.709. It also gave a relative viability (NCI-H1395; first compound 0.000632 µM) of 0.731, a relative viability (NCI-H1395; first compound 0.002 µM) of 0.635 and a relative viability (NCI-H1395; first compound 0.006325 µM) of 0.425. The relative viability (NCI-H1395; first compound 0.02 µM) was 0.295, the relative viability (NCI-H2342; first compound 0.0002 µM) was 0.72 and the relative viability (NCI-H2342; first compound 0.000632 µM) was 0.72. For the same compound, the relative viability (NCI-H2342; first compound 0.002 µM) was 0.583, the relative viability (NCI-H2342; first compound 0.006325 µM) was 0.519 and the relative viability (NCI-H2342; first compound 0.02 µM) was 0.489. The relative viability (NCI-H647; first compound 0.000632 µM) was 0.468, the relative viability (NCI-H647; first compound 0.002 µM) was 0.171 and the relative viability (NCI-H647; first compound 0.006325 µM) was 0.153. For the same compound, the relative viability (NCI-H647; first compound 0.02 µM) was 0.109, the relative viability (NCI-H1792; first compound 0.0002 µM) was 0.445 and the relative viability (NCI-H1792; first compound 0.000632 µM) was 0.394. It also gave a relative viability (NCI-H1792; first compound 0.002 µM) of 0.376, a relative viability (NCI-H1792; first compound 0.006325 µM) of 0.172 and a relative viability (NCI-H1792; first compound 0.02 µM) of 0.0755. It also gave a relative viability (EKVX; first compound 0.0002 µM) of 0.279, a relative viability (EKVX; first compound 0.000632 µM) of 0.327 and a relative viability (EKVX; first compound 0.002 µM) of 0.26. The relative viability (EKVX; first compound 0.006325 µM) was 0.198, the relative viability (EKVX; first compound 0.02 µM) was 0.134 and the relative viability (NCI-H1437; first compound 0.0002 µM) was 0.526. It also gave a relative viability (NCI-H1437; first compound 0.000632 µM) of 0.629, a relative viability (NCI-H1437; first compound 0.002 µM) of 0.406 and a relative viability (NCI-H1437; first compound 0.006325 µM) of 0.307. It also gave a relative viability (NCI-H1437; first compound 0.02 µM) of 0.196, a relative viability (NCI-H522; first compound 0.0002 µM) of 0.641 and a relative viability (NCI-H522; first compound 0.000632 µM) of 0.571. It also gave a relative viability (NCI-H522; first compound 0.002 µM) of 0.586, a relative viability (NCI-H522; first compound 0.006325 µM) of 0.448 and a relative viability (NCI-H522; first compound 0.02 µM) of 0.377.
